Molecules are shown by their SMILES. Where two headings read alike, the source gives them in different places. Bounds are passed on as bounds.

Consider nine compounds from patent US4036962A, “6,7-Methylenedioxy-1-(2,2,2-trifluoroethyl)-4(1H)-quinolone-3-carboxylic acid and its salts and esters” (E. I. Du Pont de Nemours and Co., priority 1975, dated 1977).

Test [1] concerns Escherichia coli. Nature of the test: In vivo antibacterial activity in mice infected with Escherichia coli (intraperitoneal), compound given orally at infection and 4 hours later; mortality through third day. The settings on record: for ED50: Escherichia coli, po, 72 h. The protocol:
Use of the ester of this invention as antibacterial agents is exemplified by data for 6,7-methylene-1-(2,2,2-trifluoroethyl)-4(1H)-quinolone-3-carboxylic acid, trimethylacetoxymethyl ester. In vivo determinations of antibacterial activity are carried out in mice.
The test bacterium is grown into bacteriological medium from frozen stock cultures. The culture is centrifuged, resuspended, centrifuged again, resuspended in fresh bacteriological medium, and diluted to the proper infective concentration. Mice are infected by intraperitoneal or intravenous injection of 0.2 ml. of the diluted bacterial culture.
Test compounds are dissolved or suspended in water containing 0.01% Tween 80 by either sonication or bead-milling to break up the materials in order to dissolve them or provide a fine suspension for the insoluble compounds. Concentrations are prepared so that when 0.2 ml. of the solution or suspension is administered to mice orally by intubation, the correct amount of compound in mg/kg of mouse is provided.
The mice are dosed with test compound orally by intubation at appropriate intervals following infection and mortality is recorded through the third day. The effective dose 50 (ED50) and lethal dose for 50% kill (LD50) are calculated by the Reed-Muench method.
In Table I are the results of a test in mice infected with Escherichia coli by the intraperitoneal route. Compound was administered orally by intubation immediately following infection and again 4 hours after infection.
^1 Animals dosed orally at the time of infection and again four hours
^2 Determined by agar plate counts and stock culture titration, the
dose is the LD50 multiplied by the number preceding it.

Test [2] can be described thus: Biological activity of stable versus metastable crystalline form (test not specified). The test is classed as in vivo. As to conditions: probably due to poor absorption.
Where [3] appears, read: 18 LD50 E. coli infection, 10 mg/kg PO, at infection and again 4 hours later.
Setting [4] is: 18 LD50 E. coli infection, 30 mg/kg PO, at infection and again 4 hours later.
Where [5] appears, read: 18 LD50 E. coli infection, 100 mg/kg PO, at infection and again 4 hours later.
Setting [6] is: 135 LD50 E. coli infection, 10 mg/kg PO, at infection and again 4 hours later.
Where [7] appears, read: 135 LD50 E. coli infection, 30 mg/kg PO, at infection and again 4 hours later.
Where [8] appears, read: 135 LD50 E. coli infection, 100 mg/kg PO, at infection and again 4 hours later.
[9] abbreviates: 4 LD50 E. coli infected mice, oral, read-out: ED50.
The mark [10] stands for this setting: 2 LD50 E. coli infected mice, oral, read-out: ED50.

Consider `CCn1cc(C(=O)O)c(=O)c2cc3c(cc21)OCO3` [Oxolinic Acid, reference compound], for which the “% Survivors” value in test [1] (setting [3]) is recorded as 8%; in test [1] (setting [4]), 33%; in test [1] (setting [5]) it was 83%; in test [1] (setting [6]) it was 17%; in test [1] (setting [7]), 17%; in test [1] (setting [8]) it was 25%. Moreover, the ED50 (in general, the dose that gives a 50% effect, or the effect in half of the subjects) in test [1] (18 LD50 E. coli infection, at infection and again 4 hours later, Reed-Muench) was 45 mg/kg; in test [1] (135 LD50 E. coli infection, at infection and again 4 hours later, Reed-Muench), more than 100 mg/kg.

Regarding `O=C(OCOC(=O)c1cn(CC(F)(F)F)c2cc3c(cc2c1=O)OCO3)c1ccccc1` [Example 6F, 6,7-methylenedioxy-1-(2,2,2-trifluoroethyl)-4(1H)-quinolone-3-carboxylic acid, benzoyloxymethyl ester], the ED50 in test [1] (setting [9]) was 34 mg/kg.

As to `CCC(C)(C)C(=O)OCOC(=O)c1cn(CC(F)(F)F)c2cc3c(cc2c1=O)OCO3` [Example 6B, 6,7-methylenedioxy-1-(2,2,2-trifluoroethyl)-4(1H)-quinolone-3-carboxylic acid, 2,2-dimethyl-n-butyryloxymethyl ester], the ED50 in test [1] (setting [9]) is 40 mg/kg.

`O=C(OCOC(=O)C1CCCCC1)c1cn(CC(F)(F)F)c2cc3c(cc2c1=O)OCO3` [Example 6E, 6,7-methylenedioxy-1-(2,2,2-trifluoroethyl)-4(1H)-quinolone-3-carboxylic acid, cyclohexanecarbonyloxymethyl ester]: the ED50 in test [1] (setting [10]) came to 29 mg/kg.

Regarding `CC(C)(C)C(=O)OCOC(=O)c1cn(CC(F)(F)F)c2cc3c(cc2c1=O)OCO3` [stable form, 6,7-Methylenedioxy-1-(2,2,2-trifluoroethyl)-4(1H)-quinolone-3-carboxylic acid, trimethylacetoxymethyl ester], the “biological activity of stable form compared with meta-stable form” value in test [2] was “less active than the meta-stable”.

With `CC(C)C(=O)OCOC(=O)c1cn(CC(F)(F)F)c2cc3c(cc2c1=O)OCO3` [Example 6A, 6,7-methylenedixoy-1-(2,2,2-trifluoroethyl)-4(1H)-quinolone-3-carboxylic acid, iso-butyryloxymethyl ester], the 50% effective dose (ED50) in test [1] (setting [9]) amounted to 73 mg/kg.

As to `CCCCCCCCCC(=O)OCOC(=O)c1cn(CC(F)(F)F)c2cc3c(cc2c1=O)OCO3` [Example 6D, 6,7-methylenedioxy-1-(2,2,2-trifluoroethyl)-4(1H)-quinolone-3-carboxylic acid, n-decanoyloxymethyl ester], the ED50 in test [1] (setting [10]) came out at 19 mg/kg.

Regarding `CCCCCC(=O)OCOC(=O)c1cn(CC(F)(F)F)c2cc3c(cc2c1=O)OCO3` [Example 6C, 6,7-methylenedioxy-1-(2,2,2-trifluoroethyl)-4(1H)-quinolone-3-carboxylic acid, n-hexanoyloxymethyl ester], the ED50 in test [1] (setting [9]) was 25 mg/kg.

As for `CC(C)(C)C(=O)OCOC(=O)c1cn(CC(F)(F)F)c2cc3c(cc2c1=O)OCO3` [Example 6, 6,7-Methylenedioxy-1-(2,2,2-trifluoroethyl)-4(1H)-quinolone-3-carboxylic acid, trimethylacetoxymethyl ester], the “% Survivors” value in test [1] (setting [3]) is reported as 33%; in test [1] (setting [4]), 50%; in test [1] (setting [5]), 75%; in test [1] (setting [6]) it was 17%; in test [1] (setting [7]) it was 8%; in test [1] (setting [8]), 50%. Further, the ED50 amounted to 24 mg/kg in test [1] (18 LD50 E. coli infection, PO, at infection and again 4 hours later, Reed-Muench, read-out: ED50); 77 mg/kg in test [1] (135 LD50 E. coli infection, PO, at infection and again 4 hours later, Reed-Muench, read-out: ED50). The “antibacterial activity compared with oxolinic acid” value in test [1] (systemic Escherichia coli infection of mice, two infecting levels of bacteria) is “significantly greater antibacterial activity than does oxolinic acid”.
